Measurements from publication PMC10835127, “Viruses traverse the human proteome through peptide interfaces that can be biomimetically leveraged for drug discovery” (Proceedings of the National Academy of Sciences of the …, 2024).
Like-named read-outs stand apart in the source and are kept apart here.

Columns and labels:
HIV1 strain NL4-3 = type: cell-based; details: normalized mean of HIV1 replication readout
HCV replicon = type: cell-based; details: for HCV Norm MEAN: normalized mean of HCV replicon readout
[1] = system: F. novicida (strain U112); type: cell-based
influenza A H1N1 virus = details: 48 hr post-treatment, A549
EBV = details: normalized mean of EBV replication readout

| Substance | HIV1 Norm MEAN (HIV1 strain NL4-3; peptide screen) | HCV Norm MEAN (HCV replicon; peptide screen) | Francisella novicida Norm AUC [1] | Neuraminidase activity normalized to vehicle (influenza A H1N1 virus; 200 µM peptide) | Neuraminidase activity normalized to vehicle (influenza A H1N1 virus; 0,823 µM peptide) | Neuraminidase activity normalized to vehicle (influenza A H1N1 virus; 22,2 µM peptide) | Neuraminidase activity normalized to vehicle (influenza A H1N1 virus; 2,4691 µM peptide) | Neuraminidase activity normalized to vehicle (influenza A H1N1 virus; 7,4074 µM peptide) | Neuraminidase activity normalized to vehicle (influenza A H1N1 virus; 66,6667 µM peptide) | EBV Norm MEAN (EBV; peptide screen) | HIV1 Norm MEAN (HIV1 strain NL4-3) | HCV Norm MEAN (HCV replicon) | EBV Norm MEAN (EBV) | activity in HCV screen (in words) (HCV replicon; 20 µM peptide, Huh7, replicon luciferase) |
| --- | --- | --- | --- | --- | --- | --- | --- | --- | --- | --- | --- | --- | --- | --- |
| GPSDSGAGRAAEDRKCL [CPEP137] | 0.7725 | 0.6634 | 1.181 | 1,0777 | 1,0904 | 1,189 | 0,9326 | 1,1347 | 1,0155 | 1.2267 | – | – | – | – |
| GRPPLPPKQK [CPEP41] | – | – | 0.9976 | 0,8561 | 1,0727 | 0,912 | 0,9209 | 0,9892 | 0,8347 | – | 0.6258 | 0.9259 | 0.7591 | – |
| HFEPPTLHELYDLDVTAP [CPEP115] | 1.21 | 0.5064 | 1.086 | 1,0337 | 1,141 | 1,1784 | 1,0495 | 1,1676 | 1,1762 | 0.5144 | – | – | – | – |
| HGCPL [CPEP33] | – | – | 0.6368 | 0,999 | 0,7063 | 0,8914 | 0,8619 | 0,7735 | 1,0094 | – | 0.2429 | 0.1691 | 1.339 | – |
| HVKNG [CPEP123] | – | – | 0.9754 | 0,78 | 0,7776 | 0,8404 | 0,7299 | 0,7535 | 0,9273 | – | 1.079 | 0.1965 | 1.599 | – |
| IHTHARFLIT [CPEP139] | – | – | 1.233 | 0,8832 | 1,1262 | 0,9135 | 1,0704 | 1,0144 | 0,8125 | – | 2.216 | 0.5677 | 1.5606 | – |
| IKQEDIKP [CPEP109] | – | – | 0.9859 | 0,7052 | 0,9055 | 0,889 | 0,8881 | 0,975 | 0,8029 | – | 0.5534 | 0.2159 | 0.5875 | – |
| IQIGNHNAM [CPEP67] | – | – | 0.7313 | 0,0404 | 0,9632 | 0,5849 | 0,8279 | 0,768 | 0,4017 | – | 4.672 | 0.7713 | 1.399 | – |
| ISNLPYTIKYKIFEQQ [CPEP120] | 3.21 | 0.3919 | 0.5785 | 1,0456 | 1,0562 | 1,193 | 0,9901 | 1,0754 | 1,0268 | 1.211 | – | – | – | – |
| IVISDSEEE [CPEP121] | – | – | 1.126 | 1,0697 | 1,0507 | 1,0096 | 1,0097 | 0,9639 | 1,0552 | – | 0.9208 | 0.7416 | 1.138 | – |
| KKTKSLP [CPEP75] | – | – | 1.06 | 0,6614 | 0,8942 | 0,8062 | 0,8135 | 0,8547 | 0,7577 | – | 0.7985 | 0.2042 | 0.414 | – |
| KLVTELAENS [CPEP129] | – | – | 0.9413 | 0,8014 | 1,1002 | 0,8882 | 1,0838 | 0,9983 | 0,7782 | – | 0.8117 | 0.8005 | 1.255 | – |
| LEDLL [CPEP131] | – | – | 1.169 | 1,0859 | 1,0236 | 1,0471 | 1,0486 | 0,9867 | 1,1075 | – | 2.616 | 0.1994 | 1.433 | – |
| LERVIFPSVKIATLV [CPEP53] | 0.6568 | 0.3466 | 0.5248 | 0,9303 | 0,9211 | 1,0363 | 1,008 | 1,0347 | 1,0977 | 1.031 | – | – | – | – |
| LGNIKGILGKKDKDG [CPEP51] | 0.5462 | 0.7895 | 1.389 | 1,0387 | 0,8902 | 0,9184 | 0,9673 | 0,9421 | 1,0486 | 0.7752 | – | – | – | – |
| LGQGVSIEW [CPEP122] | – | – | 1.0126 | 0,6921 | 1,0256 | 0,854 | 0,9073 | 0,9191 | 0,7889 | – | 0.4311 | 0.594 | 0.7196 | – |
| LHCYE [CPEP152] | – | – | 0.5262 | 1,0605 | 0,8889 | 0,9121 | 0,8832 | 0,8045 | 1,0197 | – | 1.7684 | 0.1555 | 1.379 | – |
| LNSLF [CPEP143] | – | – | 1.175 | 0,8484 | 0,6928 | 0,8423 | 0,7636 | 0,8039 | 0,8807 | – | 0.7905 | 0.2751 | 1.147 | – |
| LQQLL [CPEP130] | – | – | 0.7754 | 1,0055 | 0,8445 | 0,933 | 0,8513 | 0,8415 | 1,0245 | – | 1.886 | 0.1679 | 1.354 | – |
| LRKRRKRL [CPEP145] | – | – | 1.33 | 0,7911 | 0,8361 | 0,839 | 0,7253 | 0,7634 | 0,9146 | – | 1.45 | 0.1172 | 2.86 | inhibition of RNA |
| LTEDRWNKPQKTKGH [CPEP141] | 0.4657 | 0.7797 | 1.234 | 0,9005 | 0,8505 | 0,9378 | 0,92 | 0,9289 | 0,9241 | 0.7716 | – | – | – | – |
